Like-named read-outs stand apart in the source and are kept apart here.
Experiments:
Human androgen receptors = Human androgen receptors (Homo sapiens (Human), UniProt P10275, T878A); assay: Androgen receptor (AR) radioligand binding assay; conditions: read-out: AR IC50
Procedure: Methods employed in this study have been adapted from the following literature procedure.
Human androgen receptors obtained from human LNCaP cells are used in modified HEPES buffer pH 7.4. […] Non-specific binding is estimated in the presence of 1 μM testosterone. […] (See, e.g., Traish, A. M et al., Binding of 7α, 17α-dimethyl-19-nortestosterone (Mibolerone) to androgen and progesterone receptors in human and animal tissues. Endocrinology. 118(4): 1327-1333, 1986).
Compounds are screened at 10 μM.
Where presented, IC50 values were determined by a non-linear, least squares regression analysis using MathIQ™ (ID Business Solutions Ltd., UK).

androgen receptor (AR) = androgen receptor (AR) (Homo sapiens (Human), UniProt P10275); assay: Androgen receptor (AR) reporter assay, antagonist screen activated by R1881; type: cell-based; conditions: AR-UAS-bla GripTite 293 cells, antagonist mode, R1881 at EC80
androgen receptor (AR), sequence (P10275 other isoform, or with tags, fused parts or gaps): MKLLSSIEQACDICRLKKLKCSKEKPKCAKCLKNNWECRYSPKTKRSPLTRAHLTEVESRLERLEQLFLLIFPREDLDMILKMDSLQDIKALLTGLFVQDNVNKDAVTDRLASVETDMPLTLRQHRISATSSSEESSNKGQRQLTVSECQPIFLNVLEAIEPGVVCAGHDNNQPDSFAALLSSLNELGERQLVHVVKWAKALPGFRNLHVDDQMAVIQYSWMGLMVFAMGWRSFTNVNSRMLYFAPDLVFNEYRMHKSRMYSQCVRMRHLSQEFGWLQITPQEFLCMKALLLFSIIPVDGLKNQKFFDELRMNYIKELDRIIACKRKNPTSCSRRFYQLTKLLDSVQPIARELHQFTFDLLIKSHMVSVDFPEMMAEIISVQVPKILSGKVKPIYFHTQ
Procedure: The protocols and results of this Example were carried out and obtained by Thermofisher Scientific.
Test compounds were received at 1000× (or greater) of the desired starting concentration in 100% DMSO. If compounds were supplied at greater that 1000× concentration, an initial dilution is made in 100% DMSO to bring the compounds to 1000× concentration. The 1000× test compounds were serially diluted (10 point ½-log increments) in 100% DMSO.
The Substrate Loading Solution consists of three Life Technologies reagents: Solution A (10 mM LiveBLAzer™-FRET B/G Substrate), Solution B and Solution C.
Androgen Receptor (AR)—Antagonist Screen, Activated by R1881
AR-UAS-bla GripTite™ 293 cells were thawed and resuspended in Assay Media (DMEM phenol red free, 2% CD-treated FBS, 0.1 mM NEAA, 1 mM Sodium Pyruvate, 100 U/mL/100 μg/mL Pen/Strep) to a concentration of 312,500 cells/mL. 4 μL of a 10× serial dilution of Cyproterone Acetate (control antagonist starting concentration, 3,160 nM) or compounds are added to appropriate wells of a Poly-D-Lysine assay plate. 32 μL of cell suspension was added to the wells and pre-incubated at 37° C./5% CO2 in a humidified incubator with compounds and control antagonist titration for 30 minutes. 4 μL of 10× control agonist R1881 at the pre-determined EC80 concentration was added to wells containing the control antagonist or compounds. The plate was incubated for 16-24 hours at 37° C./5% CO2 in a humidified incubator. 8 μL of 1 μM Substrate Loading Solution is added to each well and the plate was incubated for 2 hours at room temperature. The plate was read on a fluorescence plate reader (Tecan Safire^2).

human PDE-5A1 = human PDE-5A1 (Homo sapiens (Human), UniProt O76074); assay: Human PDE-5A1 inhibition assay (fluorescence polarization, FAM-cGMP); type: biochemical; conditions: human PDE5A1, 100 nM FAM-cGMP, 60 minutes room temperature
Description: This example illustrates the in vitro inhibition of human PDE-5A1 by exemplary compounds of this disclosure (e.g., as described herein).
Sildenafil citrate (Catalog no. LKT-S3313, Axxora, San Diego, CA), Vardenafil hydrochloride trihydrate (Catalog no. SML2103, Sigma-Aldrich, St. Louis, MO), PDE Assay Buffer (Catalog no. 60393, BPS bioscience, San Diego, CA), PDE Binding Agent (Catalog no. 60390, BPS bioscience, San Diego, CA) and PDE Binding Agent Diluent (cGMP, Catalog no. 60392, BPS bioscience, San Diego, CA) were used for assays. Test compounds were supplied by Ildong Pharmaceuticals Co., Ltd.
The serial dilution of the compounds was first performed in 100% DMSO with the highest concentration at 1 mM and 0.1 mM. Each intermediate compound dilution (in 100% DMSO) will then get directly diluted 10× fold into assay buffer for 10% DMSO and 5 μL of the dilution was added to a 50 μL reaction so that the final concentration of DMSO is 1% in all reactions.
The enzymatic reactions were conducted at room temperature for 60 minutes in a 50 μL mixture containing PDE assay buffer, 100 nM FAM-cGMP, a PDE enzyme (Table 2) and the test compounds.
After enzymatic reaction, 100 μL of a binding solution (1:100 dilution of the binding agent with the binding agent diluent) was added to each reaction and the reaction was performed at room temperature for 60 minutes.
Fluorescence intensity was measured at excitation of 485 nm and an emission of 528 nm using a Tecan Infinite M1000 microplate reader.
PDE activity assays were performed in duplicate at each concentration. Fluorescence intensity is converted to fluorescence polarization using the Tecan Magellan6 software. The fluorescence polarization (FPt) in absence of the compound in each data set was defined as 100% activity. In the absence of PDE and the compound, the value fluorescent polarization (FPb) in each data set was defined as 0% activity. The percent activity in the presence of compound was calculated according to Equation 1:
[formula] where FP=the fluorescence polarization in the presence of the compound.
The values of % activity versus a series of compound concentrations were then plotted using non-linear regression analysis of Sigmoidal dose-response curve generated with Equation 2:
[formula] where Y=percent activity, B=minimum percent activity, T=maximum percent activity, X=logarithm of compound, and Hill Slope=slope factor or Hill coefficient. The IC50 value was determined by the concentration causing a half-maximal percent activity. Results

Human androgen receptors, sequence (P10275 whole entry T878A): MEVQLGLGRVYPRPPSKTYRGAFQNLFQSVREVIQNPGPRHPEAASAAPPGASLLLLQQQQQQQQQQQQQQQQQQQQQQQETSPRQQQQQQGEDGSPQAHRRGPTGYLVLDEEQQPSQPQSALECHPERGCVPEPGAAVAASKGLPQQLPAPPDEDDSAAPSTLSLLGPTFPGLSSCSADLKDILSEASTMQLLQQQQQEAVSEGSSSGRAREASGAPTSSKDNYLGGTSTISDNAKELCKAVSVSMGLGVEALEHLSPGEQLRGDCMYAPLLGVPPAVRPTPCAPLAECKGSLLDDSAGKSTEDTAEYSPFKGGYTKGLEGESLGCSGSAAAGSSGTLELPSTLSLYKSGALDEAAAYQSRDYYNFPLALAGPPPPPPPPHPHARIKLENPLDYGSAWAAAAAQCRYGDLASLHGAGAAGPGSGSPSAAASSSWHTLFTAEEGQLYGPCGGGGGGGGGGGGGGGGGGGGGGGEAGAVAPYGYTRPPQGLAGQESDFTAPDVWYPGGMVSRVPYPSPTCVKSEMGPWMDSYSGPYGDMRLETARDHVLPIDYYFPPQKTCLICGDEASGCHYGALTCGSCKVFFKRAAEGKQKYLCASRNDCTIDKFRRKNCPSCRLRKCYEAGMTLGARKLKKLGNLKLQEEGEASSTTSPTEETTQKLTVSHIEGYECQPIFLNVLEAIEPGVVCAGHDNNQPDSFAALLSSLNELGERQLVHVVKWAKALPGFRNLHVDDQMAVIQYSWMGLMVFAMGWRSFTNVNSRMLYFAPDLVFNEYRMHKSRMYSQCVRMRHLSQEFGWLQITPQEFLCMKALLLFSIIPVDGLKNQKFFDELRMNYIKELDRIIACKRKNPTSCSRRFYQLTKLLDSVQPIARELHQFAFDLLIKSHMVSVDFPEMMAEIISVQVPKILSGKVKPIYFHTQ

SMILES | IC50 (human PDE-5A1) [nM] | further results
CCCc1nc(C)c2c(=O)[nH]c(-c3cc(S(=O)(=O)NC4CC(=O)N(c5ccc(C#N)c(C(F)(F)F)c5)C4)ccc3OCC)nn12 (stereo not shown) [Compound 33, N-(1-(4-cyano-3-(trifluoromethyl)phenyl)-5-oxopyrrolidin-3-yl)-4-ethoxy-3-(5-methyl-4-oxo-7-propyl-3,4-dihydroimidazo[5,1-f][1,2,4]triazin-2-yl)benzenesulfonamide] | ≤ 10 | IC50 (Human androgen receptors; receptors from human LNCaP cells, 0.5 nM [3H]Methyltrienolone, 20 hours at 4° C.): > 0.2 µM; IC50 (androgen receptor (AR)): > 0.1 µM
CCCc1nn(C)c2c(=O)[nH]c(-c3cc(S(=O)(=O)Nc4cnc(C#N)c(C(F)(F)F)c4)ccc3OCC)nc12 [Compound 5, N-(6-cyano-5-(trifluoromethyl)pyridin-3-yl)-4-ethoxy-3-(1-methyl-7-oxo-3-propyl-6,7-dihydro-1H-pyrazolo[4,3-d]pyrimidin-5-yl)benzenesulfonamide] | ≤ 10 | 
CCCc1nn(C)c2c(=O)[nH]c(-c3cc(SC[C@](C)(O)C(=O)Nc4ccc(C#N)c(C(F)(F)F)c4)ccc3OCC)nc12 [Compound 2, (R)-N-(4-cyano-3-(trifluoromethyl)phenyl)-3-((4-ethoxy-3-(1-methyl-7-oxo-3-propyl-6,7-dihydro-1H-pyrazolo[4,3-d]pyrimidin-5-yl)phenyl)thio)-2-hydroxy-2-methylpropanamide] | 10 to 100 | 
CCCc1nc(C)c2c(=O)[nH]c(-c3cc(S(=O)(=O)Nc4ccc(C#N)c(C(F)(F)F)c4)ccc3OCC)nn12 [Compound 7, N-(4-cyano-3-(trifluoromethyl)phenyl)-4-ethoxy-3-(5-methyl-4-oxo-7-propyl-3,4-dihydroimidazo[5,1-f][1,2,4]triazin-2-yl)benzenesulfonamide] | ≤ 10 | 
CCCc1nn(C)c2c(=O)[nH]c(-c3cc(S(=O)(=O)N[C@@H](C)Cn4ccc(-c5ccc(C#N)c(Cl)c5)n4)ccc3OCC)nc12 [Compound 11, (S)-N-(1-(3-(3-chloro-4-cyanophenyl)-1H-pyrazol-1-yl)propan-2-yl)-4-ethoxy-3-(1-methyl-7-oxo-3-propyl-6,7-dihydro-1H-pyrazolo[4,3-d]pyrimidin-5-yl)benzenesulfonamide] | > 100 | 
CCCc1nc(C)c2c(=O)[nH]c(-c3cc(S(=O)(=O)N[C@H]4C[C@H](C(O)C(F)(F)F)N(c5ccc(C#N)c(C(F)(F)F)c5)C4)ccc3OCC)nn12 (stereo partly drawn) [Compound 10, N-((3S,5R)-1-(4-cyano-3-(trifluoromethyl)phenyl)-5-(2,2,2-trifluoro-1-hydroxyethyl)pyrrolidin-3-yl)-4-ethoxy-3-(5-methyl-4-oxo-7-propyl-3,4-dihydroimidazo[5,1-f][1,2,4]triazin-2-yl)benzenesulfonamide] | ≤ 10 | 
CCCc1nc(C)c2c(=O)[nH]c(-c3cc(N4CC(=O)N(c5ccc(C#N)c(C(F)(F)F)c5)C4=S)ccc3OCC)nn12 [Compound 25, 4-(3-(4-ethoxy-3-(5-methyl-4-oxo-7-propyl-3,4-dihydroimidazo[5,1-f][1,2,4]triazin-2-yl)phenyl)-5-oxo-2-thioxoimidazolidin-1-yl)-2-(trifluoromethyl)benzonitrile] | ≤ 10 | IC50 (androgen receptor (AR)): > 0.1 µM
CCCc1nc(C)c2c(=O)[nH]c(-c3cc(NC(=S)Nc4ccc(C#N)c(C(F)(F)F)c4)ccc3OCC)nn12 [Compound 28, 1-(4-cyano-3-(trifluoromethyl)phenyl)-3-(4-ethoxy-3-(5-methyl-4-oxo-7-propyl-3,4-dihydroimidazo [5,1-f][1,2,4]triazin-2-yl)phenyl)thiourea] | ≤ 10 | IC50 (androgen receptor (AR)): > 0.1 µM
CCCc1nn(C)c2c(=O)[nH]c(-c3cc(S(=O)(=O)C[C@](C)(O)C(=O)Nc4ccc(C#N)c(C(F)(F)F)c4)ccc3OCC)nc12 [Compound 3, (R)-N-(4-cyano-3-(trifluoromethyl)phenyl)-3-((4-ethoxy-3-(1-methyl-7-oxo-3-propyl-6,7-dihydro-1H-pyrazolo[4,3-d]pyrimidin-5-yl)phenyl)sulfonyl)-2-hydroxy-2-methylpropanamide] | 10 to 100 | 
CCCc1nc(C)c2c(=O)[nH]c(-c3cc(NC(=O)Nc4ccc(C#N)c(C(F)(F)F)c4)ccc3OCC)nn12 [Compound 27, 1-(4-cyano-3-(trifluoromethyl)phenyl)-3-(4-ethoxy-3-(5-methyl-4-oxo-7-propyl-3,4-dihydroimidazo[5,1-f][1,2,4]triazin-2-yl)phenyl)urea] | ≤ 10 | IC50 (androgen receptor (AR)): > 0.1 µM
CCCc1nn(C)c2c(=O)[nH]c(-c3cc(S(=O)(=O)Nc4ccc(C#N)c(Cl)c4)ccc3OCC)nc12 [Compound 8, N-(3-chloro-4-cyanophenyl)-4-ethoxy-3-(1-methyl-7-oxo-3-propyl-6,7-dihydro-1H-pyrazolo[4,3-d]pyrimidin-5-yl)benzenesulfonamide] | ≤ 10 | 
CCCc1nc(C)c2c(=O)[nH]c(-c3cc(N4C(=S)N(c5cnc(C#N)c(C(F)(F)F)c5)C(=O)C45CCC5)ccc3OCC)nn12 [Compound 24, 5-(5-(4-ethoxy-3-(5-methyl-4-oxo-7-propyl-3,4-dihydroimidazo[5,1-f][1,2,4]triazin-2-yl)phenyl)-8-oxo-6-thioxo-5,7-diazaspiro[3.4]octan-7-yl)-3-(trifluoromethyl)picolinonitrile] | ≤ 10 | IC50 (Human androgen receptors): 0.05 to 0.2 µM
CCCc1nn(C)c2c(=O)[nH]c(-c3cc(S(=O)(=O)Nc4ccc(C#N)c(C(F)(F)F)c4)ccc3OCC)nc12 [Compound 1, N-(4-cyano-3-(trifluoromethyl)phenyl)-4-ethoxy-3-(1-methyl-7-oxo-3-propyl-6,7-dihydro-1H-pyrazolo[4,3-d]pyrimidin-5-yl)benzenesulfonamide] | ≤ 10 | 
CCCc1nn(C)c2c(=O)[nH]c(-c3cc(S(=O)(=O)NC[C@@](C)(O)C(=O)Nc4ccc(C#N)c(C(F)(F)F)c4)ccc3OCC)nc12 [Compound 4, (R)-N-(4-cyano-3-(trifluoromethyl)phenyl)-3-((4-ethoxy-3-(1-methyl-7-oxo-3-propyl-6,7-dihydro-1H-pyrazolo[4,3-d]pyrimidin-5-yl)phenyl)sulfonamido)-2-hydroxy-2-methylpropanamide] | 10 to 100 | 
CCCc1nc(C)c2c(=O)[nH]c(-c3cc(S(=O)(=O)Nc4cnc(C#N)c(C(F)(F)F)c4)ccc3OCC)nn12 [Compound 6, N-(6-cyano-5-(trifluoromethyl)pyridin-3-yl)-4-ethoxy-3-(5-methyl-4-oxo-7-propyl-3,4-dihydroimidazo[5,1-f][1,2,4]triazin-2-yl)benzenesulfonamide] | ≤ 10 | 
CCCc1nc(C)c2c(=O)[nH]c(-c3cc(S(=O)(=O)Nc4ccc(C#N)c(Cl)c4)ccc3OCC)nn12 [Compound 9, N-(3-chloro-4-cyanophenyl)-4-ethoxy-3-(5-methyl-4-oxo-7-propyl-3,4-dihydroimidazo[5,1-f][1,2,4]triazin-2-yl)benzenesulfonamide] | ≤ 10 | 

Reference: patent publication US11787812B2, “Substituted pyrazolo[4,3-d]pyrimidines and imidazo[5,1 -f][1,2,4]triazines as androgen receptor and phosphodiesterase dual inhibitors” (ILDONG PHARMACEUTICAL CO., LTD., priority 2020, dated 2023)
